The subject of series [1] is LPS induced IL-6 production. Put plainly: LPS (lipopolysaccharide) induced IL-6 production mouse assay. Format: in vivo. The following applies: 1 h before LPS, serum IL-6 2 h after LPS; for inhibition in vivo at 3 mg/kg: Mus musculus, read-out: Inhibition of LPS induced IL-6 production in Mice, % inhibition at 3 mg/kg, 3 mg/kg oral.
Series [2] concerns the target human BRD4 first bromodomain (BDI_K57-E168) (Homo sapiens (Human), UniProt O60885). As to the kind of experiment: TR-FRET bromodomain binding assay, BRD4 first bromodomain. For orientation: Time-resolved FRET reads energy transfer from a long-lived donor to a nearby acceptor.
Series [3] is described as follows: Rat liver microsome stability assay. The series is classed as in vitro ADME. The following applies: rat liver microsomes (male Sprague-Dawley), 0.5 μM test compound, 0.25 mg/mL microsomal protein, pH 7.4, 37° C.; read-out: Stability in rat liver microsomes (t1/2 in minutes).
The nature of series [4]: Human liver microsome stability assay. Format: in vitro ADME. As to conditions: both sexes, human, microsomes, pH 7.4. (In general: Liver microsomes are a subcellular fraction often used to study metabolism.)
Series [5] relates to breast cancer cell line MX-1. As to the kind of experiment: MX-1 cell line proliferation assay. The series is classed as cell-based, human. The following applies: Homo sapiens, MX1, 72 h; MX-1 cells, 3-day proliferation, Cell Titer Glo; read-out: Cellular proliferation: EC50. (In general: In ATP-based viability assays light output follows the ATP content of the culture.)
The nature of series [6]: Mouse liver microsome stability assay. The following applies: male, CD1, mouse, microsomes, pH 7.4. Format: in vitro ADME.
Series [7] concerns the target human BRD4 second bromodomain (BDII_E352-M457) (Homo sapiens (Human), UniProt O60885). As to the kind of experiment: TR-FRET bromodomain binding assay, BRD4 second bromodomain.

Some results are limits rather than exact numbers.

In general, Ki refers to the equilibrium dissociation constant of an inhibitor or competing ligand from its target. A higher Ki goes with lower affinity. Regarding `Cn1nc(-c2cc(NS(C)(=O)=O)ccc2Oc2ccccc2)c2cc[nH]c2c1=O` [Example 80, N-[3-(6-methyl-7-oxo-6,7-dihydro-1H-pyrrolo[2,3-d]pyridazin-4-yl)-4-phenoxyphenyl]methanesulfonamide], in series [1] (30 mg/kg oral), the “Inhibition of LPS induced IL-6 production in Mice, % inhibition at 30 mg/kg” value is given as 69% at 30 mg/kg. In addition, the Ki amounted to 9.1 nM in series [2] and 6.1 nM in series [7]. The half-life at 0.5 μM was 0.0333 h in series [3], 1.03 h in series [4] and 0.517 h in series [6]. In addition, the EC50 in series [5] was 62 nM.
As for `CCS(=O)(=O)Nc1ccc(Oc2c(F)cc(F)cc2F)c(-c2cn(C)c(=O)c3[nH]ccc23)c1` [Example 62, N-[3-(6-methyl-7-oxo-6,7-dihydro-1H-pyrrolo[2,3-c]pyridin-4-yl)-4-(2,4,6-trifluorophenoxy)phenyl]ethanesulfonamide], in series [1], the inhibition in vivo at 3 mg/kg worked out at 67%. Further, the Ki stood at 3 nM in series [2] and 1.9 nM in series [7]. The half-life at 0.5 μM in series [3] is 0.75 h; in series [4] it was 1.07 h; in series [6], 0.417 h. Also, the EC50 in series [5] was 7.9 nM.
As for `Cn1cc(-c2cc(S(C)(=O)=O)ccc2Oc2ccc(F)cc2F)c2cc(CO)[nH]c2c1=O` [Example 276, 4-[2-(2,4-difluorophenoxy)-5-(methylsulfonyl)phenyl]-2-(hydroxymethyl)-6-methyl-1,6-dihydro-7H-pyrrolo[2,3-c]pyridin-7-one], the inhibition in vivo at 3 mg/kg in series [1] turned out to be 25%. The inhibitory constant (Ki) came out at 11.4 nM in series [2] and 17.1 nM in series [7]. Moreover, the results for the half-life at 0.5 μM in series [3], in series [4] and in series [6] were 1.37 h, above 2 h and 1.18 h, respectively. For the same compound, the EC50 in series [5] came to 149 nM.
Regarding `Cn1cc(-c2cc(S(C)(=O)=O)ccc2Oc2cccc(N)c2)c2cc[nH]c2c1=O` [Example 166, 4-[2-(3-aminophenoxy)-5-(methylsulfonyl)phenyl]-6-methyl-1,6-dihydro-7H-pyrrolo[2,3-c]pyridin-7-one], the inhibition in vivo at 3 mg/kg in series [1] came out at 44%. In addition, the Ki in series [2] worked out at 10.9 nM; in series [7], 3.6 nM. Also, the half-life at 0.5 μM in series [3] was found to be 0.383 h; in series [4], 1.42 h; in series [6], 0.367 h. Further, the EC50 in series [5] is 48.2 nM.
Consider `CCS(=O)(=O)c1ccc(Oc2ccc(F)cc2F)c(-c2cn(C)c(=O)c3[nH]ccc23)c1` [Example 168, 4-[2-(2,4-difluorophenoxy)-5-(ethylsulfonyl)phenyl]-6-methyl-1,6-dihydro-7H-pyrrolo[2,3-c]pyridin-7-one], for which the inhibition in vivo at 3 mg/kg in series [1] turned out to be 70%. The Ki in series [2] worked out at 5.4 nM; in series [7] it was 1.3 nM. Also, the half-life at 0.5 μM in series [3] came to 1.37 h; in series [4], 1.1 h; in series [6], 0.417 h. Also, the EC50 in series [5] turned out to be 27.7 nM.
`Cn1cc(-c2cc(NS(=O)(=O)CC(F)(F)F)ccc2Oc2ccccc2)c2cc[nH]c2c1=O` [Example 5, 2,2,2-trifluoro-N-[3-(6-methyl-7-oxo-6,7-dihydro-1H-pyrrolo[2,3-c]pyridin-4-yl)-4-phenoxyphenyl]ethanesulfonamide]: the “Inhibition of LPS induced IL-6 production in Mice, % inhibition at 50 mg/kg” value in series [1] (50 mg/kg oral) worked out at 74% at 50 mg/kg. The inhibition constant Ki in series [2] worked out at 15 nM; in series [7], 6.4 nM. Also, the half-life at 0.5 μM in series [3] is 0.1 h; in series [4] it was 1.67 h; in series [6] it was 0.4 h. Moreover, the EC50 in series [5] came to 31 nM.
With `Cn1cc(-c2cc(S(C)(=O)=O)ccc2OC2CCOC2)c2cc[nH]c2c1=O` (stereo not shown) [Example 205, 6-methyl-4-[5-(methylsulfonyl)-2-(tetrahydrofuran-3-yloxy)phenyl]-1,6-dihydro-7H-pyrrolo[2,3-c]pyridin-7-one], the inhibition in vivo at 3 mg/kg in series [1] was found to be 48%. The Ki in series [2] was determined as 6.2 nM; in series [7] it was 10.2 nM. Further, the results for the half-life at 0.5 μM in series [3], in series [4] and in series [6] were 1.35 h, above 2 h and 1.97 h, respectively. In addition, the EC50 in series [5] was 39.1 nM.
`Cn1cc(-c2cc(S(C)(=O)=O)ccc2OCC2(C)CC2)c2cc[nH]c2c1=O` [Example 231, 6-methyl-4-{2-[(1-methylcyclopropyl)methoxy]-5-(methylsulfonyl)phenyl}-1,6-dihydro-7H-pyrrolo[2,3-c]pyridin-7-one]: in series [1], the inhibition in vivo at 3 mg/kg was 51%. The Ki in series [2] was 3.7 nM; in series [7], 6.7 nM. Besides, the figures for the half-life at 0.5 μM in series [3], in series [4] and in series [6] were above 2 h, 0.55 h and 1.2 h, respectively. Also, the EC50 in series [5] came out at 6.3 nM.
Take `CCS(=O)(=O)c1ccc(N2CCCC2)c(-c2cn(C)c(=O)c3[nH]ccc23)c1` [Example 330, 4-[5-(ethylsulfonyl)-2-(pyrrolidin-1-yl)phenyl]-6-methyl-1,6-dihydro-7H-pyrrolo[2,3-c]pyridin-7-one]: in series [1], the inhibition in vivo at 3 mg/kg was found to be 45%. Further, the Ki in series [2] came out at 50.9 nM; in series [7], 4.6 nM. Moreover, the half-life at 0.5 μM in series [3] stood at 0.2 h; in series [4], 0.498 h; in series [6] it was 0.467 h. Besides, in series [5], the EC50 turned out to be 30.6 nM.
Regarding `CCS(=O)(=O)c1cnc(Oc2ccc(F)cc2F)c(-c2cn(C)c(=O)c3[nH]ccc23)c1` [Example 294, 4-[2-(2,4-difluorophenoxy)-5-(ethylsulfonyl)pyridin-3-yl]-6-methyl-1,6-dihydro-7H-pyrrolo[2,3-c]pyridin-7-one], in series [1], the inhibition in vivo at 3 mg/kg came out at 79%. Also, the inhibition constant Ki in series [2] was found to be 47.9 nM; in series [7], 21.7 nM. The half-life at 0.5 μM in series [3], in series [4] and in series [6] was above 2 h throughout. Also, the EC50 in series [5] came out at 332 nM.
In the case of `Cn1cc(-c2cc(NS(C)(=O)=O)ccc2OC2CCC(F)(F)CC2)c2cc[nH]c2c1=O` [Example 59, N-{4-[(4,4-difluorocyclohexyl)oxy]-3-(6-methyl-7-oxo-6,7-dihydro-1H-pyrrolo[2,3-c]pyridin-4-yl)phenyl}methanesulfonamide], the inhibition in vivo at 3 mg/kg in series [1] was determined as 54%. Moreover, the Ki in series [2] is 0.84 nM; in series [7], 1.6 nM. Moreover, the half-life at 0.5 μM in series [3] was 0.667 h; in series [4] it was above 2 h; in series [6], 0.383 h. The EC50 in series [5] stood at 18.7 nM.
In the case of `CCS(=O)(=O)Nc1ccc(Oc2ccc(C(N)=O)cc2)c(-c2cn(C)c(=O)c3[nH]ccc23)c1` [Example 84, 4-{4-[(ethylsulfonyl)amino]-2-(6-methyl-7-oxo-6,7-dihydro-1H-pyrrolo[2,3-c]pyridin-4-yl)phenoxy}benzamide], the inhibition in vivo at 3 mg/kg in series [1] came out at 69%. For the same compound, the results for the Ki in series [2] and in series [7] were 1.67 nM and 0.65 nM, respectively. Also, the half-life at 0.5 μM in series [3] is 1.53 h; in series [4] it was 1.87 h; in series [6], above 2 h. Further, the EC50 in series [5] worked out at 231 nM.
For `Cn1cc(-c2cc(S(N)(=O)=O)ccc2NCC2CC2)c2cc[nH]c2c1=O` [Example 238, 4-[(cyclopropylmethyl)amino]-3-(6-methyl-7-oxo-6,7-dihydro-1H-pyrrolo[2,3-c]pyridin-4-yl)benzenesulfonamide], the inhibition in vivo at 3 mg/kg in series [1] was 69%. Further, the inhibitory constant (Ki) in series [2] turned out to be 1.1 nM; in series [7] it was 0.78 nM. Moreover, the half-life at 0.5 μM is above 2 h in series [3], 1.72 h in series [4] and 1.05 h in series [6]. Further, the EC50 in series [5] turned out to be 3.3 nM.
As to `Cn1cc(-c2cc(S(N)(=O)=O)cnc2OCC2CC2)c2cc[nH]c2c1=O` [Example 207, 6-(cyclopropylmethoxy)-5-(6-methyl-7-oxo-6,7-dihydro-1H-pyrrolo[2,3-c]pyridin-4-yl)pyridine-3-sulfonamide], the inhibition in vivo at 3 mg/kg in series [1] amounted to 62%. Moreover, the Ki in series [2] was 3.1 nM; in series [7], 1.8 nM. Further, the half-life at 0.5 μM in series [3] was found to be 1.3 h; in series [4] it was 1.7 h; in series [6], 1.67 h. In series [5], the EC50 came out at 25.1 nM.
As to `CCS(=O)(=O)c1ccc(O[C@H]2CC[C@H](OC)CC2)c(-c2cn(C)c(=O)c3[nH]ccc23)c1` [Example 260, 4-{5-(ethylsulfonyl)-2-[(trans-4-methoxycyclohexyl)oxy]phenyl}-6-methyl-1,6-dihydro-7H-pyrrolo[2,3-c]pyridin-7-one], the inhibition in vivo at 3 mg/kg in series [1] worked out at 66%. The Ki in series [2] was 1 nM; in series [7], 1.2 nM. Also, the results for the half-life at 0.5 μM in series [3], in series [4] and in series [6] were 0.967 h, 0.567 h and 0.483 h, respectively. Moreover, the EC50 in series [5] was 6.3 nM.
`Cn1cc(-c2cc(S(C)(=O)=O)ccc2Oc2ccccc2)c2cc[nH]c2c1=O` [Example 85, 6-methyl-4-[5-(methylsulfonyl)-2-phenoxyphenyl]-1,6-dihydro-7H-pyrrolo[2,3-c]pyridin-7-one]: the inhibition in vivo at 3 mg/kg in series [1] stood at 80%. The Ki came out at 6.4 nM in series [2] and 1.7 nM in series [7]. The values for the half-life at 0.5 μM in series [3], in series [4] and in series [6] were 0.1 h, 0.717 h and 0.567 h, respectively. The EC50 in series [5] worked out at 52 nM.

The values are drawn from patent US9296741B2, “Bromodomain inhibitors” (priority 2012, dated 2016).
